Molecules are shown by their SMILES. The source made the active and inactive calls. For most assays here, no stated cut-off is given here; in the data, actives have a measured IC50 and inactives only a lower limit.

One test has as its target T1, Caspase-3 (Homo sapiens, UniProt P42574).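 Further: Dose-response selectivity test against caspase-3 for candidate inhibitors of sentrin-specific proteases (SENPs).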
T1 sequence (P42574 whole entry): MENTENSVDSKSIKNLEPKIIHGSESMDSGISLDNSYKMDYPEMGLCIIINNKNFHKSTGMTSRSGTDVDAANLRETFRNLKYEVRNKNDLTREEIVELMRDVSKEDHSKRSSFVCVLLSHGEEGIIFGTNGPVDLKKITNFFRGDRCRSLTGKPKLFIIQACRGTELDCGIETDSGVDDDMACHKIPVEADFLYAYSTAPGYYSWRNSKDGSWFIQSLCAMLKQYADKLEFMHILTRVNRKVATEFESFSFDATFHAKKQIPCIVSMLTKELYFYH
Format: functional.

The target of test [1] is T2, Sentrin-specific protease 7 (Homo sapiens, UniProt Q9BQF6).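 Further: Luminescence-based dose-response confirmation of ultra-high-throughput screening hits, measuring inhibition of SENP7.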
T2 sequence (Q9BQF6 whole entry): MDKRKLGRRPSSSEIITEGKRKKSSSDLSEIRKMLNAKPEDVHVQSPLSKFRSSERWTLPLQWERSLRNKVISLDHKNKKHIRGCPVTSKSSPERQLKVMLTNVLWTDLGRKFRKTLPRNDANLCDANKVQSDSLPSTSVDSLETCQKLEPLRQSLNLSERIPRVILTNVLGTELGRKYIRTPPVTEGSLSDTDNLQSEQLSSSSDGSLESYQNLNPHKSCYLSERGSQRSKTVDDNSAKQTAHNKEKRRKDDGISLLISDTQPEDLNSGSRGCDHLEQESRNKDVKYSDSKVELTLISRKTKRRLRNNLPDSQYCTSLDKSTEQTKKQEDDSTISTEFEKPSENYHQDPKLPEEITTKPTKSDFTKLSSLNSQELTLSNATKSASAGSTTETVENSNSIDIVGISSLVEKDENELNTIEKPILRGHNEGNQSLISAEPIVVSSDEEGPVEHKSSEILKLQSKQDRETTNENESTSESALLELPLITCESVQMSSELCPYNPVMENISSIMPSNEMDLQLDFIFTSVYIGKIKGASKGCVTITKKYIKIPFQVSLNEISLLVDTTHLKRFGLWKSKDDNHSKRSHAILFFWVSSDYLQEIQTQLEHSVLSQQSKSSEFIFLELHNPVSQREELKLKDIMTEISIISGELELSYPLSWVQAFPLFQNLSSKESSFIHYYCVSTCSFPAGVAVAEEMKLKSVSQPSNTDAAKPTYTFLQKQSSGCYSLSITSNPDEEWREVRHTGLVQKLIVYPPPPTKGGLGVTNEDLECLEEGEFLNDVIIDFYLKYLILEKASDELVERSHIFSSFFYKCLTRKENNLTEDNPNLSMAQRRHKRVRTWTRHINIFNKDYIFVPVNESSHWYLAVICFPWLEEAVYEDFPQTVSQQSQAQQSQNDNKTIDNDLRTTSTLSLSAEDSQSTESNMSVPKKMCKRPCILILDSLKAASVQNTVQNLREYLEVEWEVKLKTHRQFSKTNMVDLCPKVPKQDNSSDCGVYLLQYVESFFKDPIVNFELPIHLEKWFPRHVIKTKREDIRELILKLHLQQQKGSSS
Format: functional.

In test [2] the target is T3, Sentrin-specific protease 6 (Homo sapiens, UniProt Q9GZR1).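 Further: Luminescence-based dose-response confirmatory assay of SENP6 inhibition, following up an ultra-high-throughput screen.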
T3 sequence (Q9GZR1 whole entry): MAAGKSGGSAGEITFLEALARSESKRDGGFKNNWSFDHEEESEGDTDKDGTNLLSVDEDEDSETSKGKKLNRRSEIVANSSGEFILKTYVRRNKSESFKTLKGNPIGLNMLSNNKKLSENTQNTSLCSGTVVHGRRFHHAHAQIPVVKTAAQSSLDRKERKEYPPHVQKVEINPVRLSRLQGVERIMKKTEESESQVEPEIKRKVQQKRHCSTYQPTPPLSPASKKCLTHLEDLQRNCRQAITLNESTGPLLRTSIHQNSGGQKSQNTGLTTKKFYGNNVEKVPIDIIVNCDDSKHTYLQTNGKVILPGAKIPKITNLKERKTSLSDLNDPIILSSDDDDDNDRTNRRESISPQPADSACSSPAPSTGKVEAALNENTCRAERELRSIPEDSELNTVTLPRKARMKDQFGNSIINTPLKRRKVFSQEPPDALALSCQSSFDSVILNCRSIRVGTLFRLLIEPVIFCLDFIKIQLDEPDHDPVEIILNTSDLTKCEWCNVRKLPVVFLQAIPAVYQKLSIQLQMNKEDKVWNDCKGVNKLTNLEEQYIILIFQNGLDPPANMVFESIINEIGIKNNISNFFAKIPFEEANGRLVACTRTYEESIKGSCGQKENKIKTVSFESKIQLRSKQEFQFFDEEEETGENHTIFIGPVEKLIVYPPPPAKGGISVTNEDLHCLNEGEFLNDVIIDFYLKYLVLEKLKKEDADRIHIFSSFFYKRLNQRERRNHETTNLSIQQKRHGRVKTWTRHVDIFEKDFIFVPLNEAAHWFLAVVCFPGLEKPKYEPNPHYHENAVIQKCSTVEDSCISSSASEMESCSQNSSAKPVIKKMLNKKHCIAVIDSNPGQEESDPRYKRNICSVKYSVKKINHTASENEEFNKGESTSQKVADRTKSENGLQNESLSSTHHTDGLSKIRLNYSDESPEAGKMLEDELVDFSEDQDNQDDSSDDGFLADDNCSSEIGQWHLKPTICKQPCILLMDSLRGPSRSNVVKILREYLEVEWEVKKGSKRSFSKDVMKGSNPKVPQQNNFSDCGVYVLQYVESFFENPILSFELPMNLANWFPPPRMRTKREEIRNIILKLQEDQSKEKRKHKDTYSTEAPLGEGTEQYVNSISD
Format: functional.

In test [3] the target is T4, Sentrin-specific protease 8 (Homo sapiens, UniProt Q96LD8).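 Further: luminescence read-out of SENP8 inhibition, dose-response confirmation following an ultra-high-throughput screen.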
T4 sequence (Q96LD8 whole entry): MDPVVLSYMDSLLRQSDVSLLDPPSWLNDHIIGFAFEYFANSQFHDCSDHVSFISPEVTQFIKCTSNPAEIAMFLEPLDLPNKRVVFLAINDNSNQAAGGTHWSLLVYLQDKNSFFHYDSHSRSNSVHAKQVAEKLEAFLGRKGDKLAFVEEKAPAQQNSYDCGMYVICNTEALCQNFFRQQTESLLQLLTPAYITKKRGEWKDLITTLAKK
Format: functional.

The next test has as its target T5, Hexokinase-1 (Homo sapiens, UniProt P19367).
T5 sequence (P19367 whole entry): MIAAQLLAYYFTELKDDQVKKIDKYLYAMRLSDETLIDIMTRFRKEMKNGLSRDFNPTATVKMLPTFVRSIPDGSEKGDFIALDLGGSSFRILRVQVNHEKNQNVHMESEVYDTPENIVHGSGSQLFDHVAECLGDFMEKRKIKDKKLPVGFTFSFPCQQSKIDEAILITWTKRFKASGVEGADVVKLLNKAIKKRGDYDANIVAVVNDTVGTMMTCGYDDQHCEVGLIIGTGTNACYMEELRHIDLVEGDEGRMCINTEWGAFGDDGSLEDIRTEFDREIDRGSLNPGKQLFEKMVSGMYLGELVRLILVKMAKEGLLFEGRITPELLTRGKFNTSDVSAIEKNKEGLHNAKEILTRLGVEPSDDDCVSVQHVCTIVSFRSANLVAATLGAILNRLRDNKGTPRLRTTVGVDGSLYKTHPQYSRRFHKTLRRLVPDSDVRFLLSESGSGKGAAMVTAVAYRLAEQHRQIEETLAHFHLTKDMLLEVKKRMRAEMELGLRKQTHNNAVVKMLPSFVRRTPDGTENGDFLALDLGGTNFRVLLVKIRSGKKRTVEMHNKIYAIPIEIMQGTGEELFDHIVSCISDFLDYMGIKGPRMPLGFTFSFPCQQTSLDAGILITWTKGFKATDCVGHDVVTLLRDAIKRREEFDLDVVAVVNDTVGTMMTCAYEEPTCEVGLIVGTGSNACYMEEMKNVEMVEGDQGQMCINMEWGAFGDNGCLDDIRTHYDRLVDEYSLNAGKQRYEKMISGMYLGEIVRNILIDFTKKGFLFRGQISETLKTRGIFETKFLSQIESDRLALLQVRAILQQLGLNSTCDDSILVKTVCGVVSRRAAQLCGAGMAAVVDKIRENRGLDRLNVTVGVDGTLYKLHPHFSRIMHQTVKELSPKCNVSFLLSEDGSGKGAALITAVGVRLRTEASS
The test can be described thus: SAR analysis of small molecule inhibitors of hexokinase domain containing I (HKDC1) in the hexokinase 1 selectivity assay. [Related pubchem assays (depositor defined):AID493160, AID493190]. Format: functional.

Another test concerns the target T6, Hexokinase HKDC1 (Homo sapiens, UniProt Q2TB90).
T6 sequence (Q2TB90 whole entry): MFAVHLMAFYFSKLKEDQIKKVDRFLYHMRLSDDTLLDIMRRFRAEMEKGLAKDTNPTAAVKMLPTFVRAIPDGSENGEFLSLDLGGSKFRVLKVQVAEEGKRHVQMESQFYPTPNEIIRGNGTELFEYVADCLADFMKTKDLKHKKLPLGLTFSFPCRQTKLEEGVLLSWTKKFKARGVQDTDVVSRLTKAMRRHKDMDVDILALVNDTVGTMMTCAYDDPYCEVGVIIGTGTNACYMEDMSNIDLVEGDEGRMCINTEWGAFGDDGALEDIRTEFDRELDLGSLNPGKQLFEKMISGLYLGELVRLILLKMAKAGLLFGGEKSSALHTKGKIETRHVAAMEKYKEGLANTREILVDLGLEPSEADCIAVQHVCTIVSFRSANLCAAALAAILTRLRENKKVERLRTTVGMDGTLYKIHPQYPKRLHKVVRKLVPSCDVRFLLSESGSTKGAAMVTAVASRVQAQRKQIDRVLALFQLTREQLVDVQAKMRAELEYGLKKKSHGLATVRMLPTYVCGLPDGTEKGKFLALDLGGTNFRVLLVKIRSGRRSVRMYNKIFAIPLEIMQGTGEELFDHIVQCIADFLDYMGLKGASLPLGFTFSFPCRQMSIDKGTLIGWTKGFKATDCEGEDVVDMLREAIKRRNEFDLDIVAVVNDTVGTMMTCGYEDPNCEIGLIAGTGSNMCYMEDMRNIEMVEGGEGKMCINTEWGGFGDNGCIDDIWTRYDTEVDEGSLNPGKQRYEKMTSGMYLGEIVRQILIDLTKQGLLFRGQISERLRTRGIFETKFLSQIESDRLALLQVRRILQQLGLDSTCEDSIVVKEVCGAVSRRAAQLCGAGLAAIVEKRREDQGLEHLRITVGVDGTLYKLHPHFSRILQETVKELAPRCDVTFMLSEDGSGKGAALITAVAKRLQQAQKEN
Kind of test: SAR analysis of small molecule inhibitors of hexokinase domain containing I (HKDC1). [Related pubchem assays (depositor defined):AID493160, AID493190]. The format is functional.

For test [4], the target named is T7, Apoptotic protease-activating factor 1 (Homo sapiens, UniProt O14727).
T7 sequence (O14727 whole entry): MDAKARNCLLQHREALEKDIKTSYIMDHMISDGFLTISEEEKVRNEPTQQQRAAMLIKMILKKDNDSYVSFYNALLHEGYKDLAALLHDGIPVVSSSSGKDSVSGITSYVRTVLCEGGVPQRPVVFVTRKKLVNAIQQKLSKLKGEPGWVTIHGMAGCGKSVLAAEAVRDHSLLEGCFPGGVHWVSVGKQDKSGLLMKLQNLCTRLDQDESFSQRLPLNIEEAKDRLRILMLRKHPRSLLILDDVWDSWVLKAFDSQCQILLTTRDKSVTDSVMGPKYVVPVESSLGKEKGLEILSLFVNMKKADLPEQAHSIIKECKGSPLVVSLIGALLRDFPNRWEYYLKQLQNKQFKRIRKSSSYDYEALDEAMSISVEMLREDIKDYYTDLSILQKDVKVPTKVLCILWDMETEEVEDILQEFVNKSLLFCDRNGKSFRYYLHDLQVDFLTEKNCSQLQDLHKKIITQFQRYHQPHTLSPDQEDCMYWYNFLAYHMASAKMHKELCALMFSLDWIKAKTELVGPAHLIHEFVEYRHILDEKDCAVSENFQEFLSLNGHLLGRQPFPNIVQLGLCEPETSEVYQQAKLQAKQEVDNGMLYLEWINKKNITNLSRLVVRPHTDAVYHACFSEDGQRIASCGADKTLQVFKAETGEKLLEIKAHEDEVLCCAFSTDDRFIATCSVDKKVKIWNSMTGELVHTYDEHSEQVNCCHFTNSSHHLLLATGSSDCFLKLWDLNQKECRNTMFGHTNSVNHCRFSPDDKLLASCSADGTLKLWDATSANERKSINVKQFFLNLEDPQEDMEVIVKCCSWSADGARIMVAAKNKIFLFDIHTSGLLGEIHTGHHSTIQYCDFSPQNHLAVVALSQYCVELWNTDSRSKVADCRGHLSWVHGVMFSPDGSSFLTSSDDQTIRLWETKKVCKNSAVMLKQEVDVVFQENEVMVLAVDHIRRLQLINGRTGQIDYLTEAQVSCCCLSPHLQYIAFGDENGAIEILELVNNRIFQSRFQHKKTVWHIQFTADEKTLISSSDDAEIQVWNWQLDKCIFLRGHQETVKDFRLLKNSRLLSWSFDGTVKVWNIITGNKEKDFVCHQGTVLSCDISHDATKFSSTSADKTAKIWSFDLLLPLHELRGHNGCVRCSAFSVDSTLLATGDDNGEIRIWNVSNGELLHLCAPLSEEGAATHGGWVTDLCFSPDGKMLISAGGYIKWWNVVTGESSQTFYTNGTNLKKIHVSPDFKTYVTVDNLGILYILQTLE
Format: functional.

A further test relates to HEK293. The test can be described thus: HEK293T cell viability loss, resazurin readout – resazurin fluorescence, cytotoxicity control for NF-kB activator project, SAR follow-up (AID 493251). The format is functional, cell-based. The conditions noted are these: Homo sapiens. (Resazurin is reduced to fluorescent resorufin, in cell work by metabolically active cells.)

In the case of `COc1ccc(-c2cn(CCC(=O)O)c(C)n2)cc1`, the IC50 at Caspase-3 was 40.7 µM (active); in test [1], 4.75 µM (active); in test [2] it was 4.89 µM (active); in test [3], 4.56 µM (active).
In the same order, the values of `O=C1CC(/C=C/c2ccccc2)=Nc2ccccc2N1` are 28.2 µM (active), 6.55 µM (active), 33.2 µM (active) and 48.1 µM (active).
For the compound `Cc1cc2nnc(SCC(=O)Nc3cccc(S(=O)(=O)N4CCCCC4)c3)n2c2ccccc12`, the IC50 on Hexokinase-1 and on Hexokinase HKDC1 was > 80 µM (inactive) throughout.
For `CCN(CC(=O)Nc1c(F)cccc1F)C(=O)Cc1ccsc1`, the IC50 in test [4] is > 100 µM (inactive).
Take `CCNC(=O)CCc1nc(-c2ccccc2)no1`: the IC50 with HEK293 is > 80 µM (inactive).

One may read the IC50 as the concentration that inhibits the measured activity by half.

Values taken from ChEMBL document CHEMBL1201862, “PubChem BioAssay data set” (2004).
